Measurements taken from patent US20190070174A1, “METHODS OF TREATING NEURODEGENERATIVE DISEASES” (priority 2016, published 2019).

Columns and labels:
[1] = tested on: ATXN3Q81.Luc fusion protein; assay: Confirmation dose-response, ATXN3 levels by immunoblotting; format: cell-based, human; details: 293.ATXN3Q81Luc cells
Description: Full-length ATXN3 (Accession number ABS29269) carrying either a normal or an expanded polyQ tract (Q26 or Q81) was subcloned in the vector pcDNA3.1 FLAG.firefly Luciferase. The mammalian expression plasmids pcDNA.FLAG.ATXN3Q26.Luc and pcDNA.FLAG.ATXN3Q81.Luc were confirmed by sequencing and shown to express N-terminal FLAG-tagged ATXN3Q26 or ATXN3Q81 fused with firefly Luciferase (Luc), respectively. These neomycin-resistant plasmids were transfected into HEK293 cells using Lipofectamine LTX (Invitrogen) during four hours, after which medium was replaced by growth medium (DMEM/10% fetal bovine serum (FBS)/1% penicillin/streptomycin (PS)). […] After one month of passage in selection medium, stably transfected clones for each cell line (293.ATXN3Q26Luc and 293.ATXN3Q81Luc) were pooled and frozen in liquid nitrogen. Stably transfected cell lines were maintained in selection medium except during treatment with specific compounds that were diluted in growth medium.
Protein lysates from cell cultures, mouse brain slices or mouse brains were obtained by lysis in RIPA buffer containing protease inhibitors (Complete, Roche Diagnostics), followed by sonication and centrifugation. The supernatants (soluble protein fractions) were collected, total protein concentration was determined using the BCA method (Pierce) and then stored at −80° C. Total proteins (50 μg from cell and slice cultures or 75 μg from brain regions of mice) were resolved in 10% SDS-PAGE gels, and corresponding PVDF membranes were incubated overnight at 4° C. with primary antibodies: mouse anti-ATXN3 (1H9) (1:2000; MAB5360, Millipore), goat anti-Luciferase (1:500; G7451, Promega), mouse anti-FLAG (M5) (1:500; IB13091, Sigma), rabbit anti-LC3 (1:500; PM036, MBL International Corporation), mouse anti-HSP90β (1:1000; ADI-SPA842, Enzo Life Sciences), rabbit anti-HSP90α (1:1000; ab2928, Abcam), mouse anti-HSP70 (1:500; SPA810, Enzo Life Sciences), rabbit anti-HSP40 (1:1000; #4868, Cell Signaling), rabbit anti-HSP25 (1:1000; ADI-SPA801, Enzo Life Sciences), rabbit anti-HSF1 (1:1000, ADI-SPA-901, Enzo Life Sciences), rabbit anti-ubiquitin (1:1000, Z 0458, Dako), rabbit anti-RAD23A (1:5000; TA307264, Origene), rabbit anti-RAD23B (1:2000; A302-306A, Bethyl Labs), rabbit anti-α-Tubulin (11H10) (1:10000; #2125, Cell Signaling), and mouse anti-GAPDH (1:1000; MAB374, Millipore). Pellets corresponding to insoluble protein fractions were resuspended in 100 μL of Laemmli buffer 2× and boiled for 10 min. Insoluble proteins were then quantified, and 100 μg were loaded in a filter trap assay apparatus and transferred to a nitrocellulose membrane (0.45 μm pore) that was incubated overnight with rabbit anti-MJD antibody (1:5000) at 4° C. Bound primary antibodies were visualized by incubation with a peroxidase-conjugated anti-mouse or anti-rabbit secondary antibody (1:10000; Jackson Immuno Research Laboratories) followed by treatment with the ECL-plus reagent (Western Lighting, PerkinElmer) and exposure to autoradiography films. Band intensity was quantified by densitometry using ImageJ.

human mutant ATXN3Q84 = format: cell-based; details: sagittal brain slices treated for 48 hours, cerebellum and brainstem
Procedure: (§1) Nine slices per brain were used in each set of cultures. […] After 48 hours of incubation at 37° C./5% CO2, brain slices were assessed for ATXN3 levels by immunoblotting or immunofluorescence and for cell viability. For immunoblotting, each slice was macrodissected into separate cerebellum and brainstem that were immediately frozen at −80° C. in 80 μL and 150 μL of cold RIPA buffer containing protease inhibitors (Complete, Roche Diagnostics), respectively. Cell viability was assessed on treated slices by incubation in propidium iodide (PI) 1 μg/mL in culture medium for 1 hour. Slices were then mounted in PROLONG Gold Antifade Reagent (Invitrogen) and imaged using a FV500 Olympus confocal microscope.
Protein lysates from cell cultures, mouse brain slices or mouse brains were obtained by lysis in RIPA buffer containing protease inhibitors (Complete, Roche Diagnostics), followed by sonication and centrifugation. The supernatants (soluble protein fractions) were collected, total protein concentration was determined using the BCA method (Pierce) and then stored at −80° C. […] Pellets corresponding to insoluble protein fractions were resuspended in 100 μL of Laemmli buffer 2× and boiled for 10 min. Insoluble proteins were then quantified, and 100 μg were loaded in a filter trap assay apparatus and transferred to a nitrocellulose membrane (0.45 μm pore) that was incubated overnight with rabbit anti-MJD antibody (1:5000) at 4° C. Bound primary antibodies were visualized by incubation with a peroxidase-conjugated anti-mouse or anti-rabbit secondary antibody (1:10000; Jackson Immuno Research Laboratories) followed by treatment with the ECL-plus reagent (Western Lighting, PerkinElmer) and exposure to autoradiography films. Band intensity was quantified by densitometry using ImageJ.
To assess the efficacy of the five compounds to reduce ATXN3 levels in the mammalian brain, secondary screens in organotypic brain slice cultures derived from hemizygous YACMJD84.2 (Q84) transgenic mice were performed.

mouse Atxn3 = assay: Organotypic brain slice cultures from YACMJD84.2 (Q84) mice, immunoblotting; format: cell-based; details: sagittal brain slices treated for 48 hours, cerebellum and brainstem
Procedure: as §1
Protein lysates from cell cultures, mouse brain slices or mouse brains were obtained by lysis in RIPA buffer containing protease inhibitors (Complete, Roche Diagnostics), followed by sonication and centrifugation. The supernatants (soluble protein fractions) were collected, total protein concentration was determined using the BCA method (Pierce) and then stored at −80° C. […] Insoluble proteins were then quantified, and 100 μg were loaded in a filter trap assay apparatus and transferred to a nitrocellulose membrane (0.45 μm pore) that was incubated overnight with rabbit anti-MJD antibody (1:5000) at 4° C. […] Band intensity was quantified by densitometry using ImageJ. […]

Structure (SMILES)	levels of ATXN3Q81.Luc fusion protein [1]	levels of human mutant ATXN3Q84 (human mutant ATXN3Q84)	levels of mouse Atxn3 (mouse Atxn3)
CC#C[C@]1(O)CC[C@H]2[C@@H]3CCC4=CC(=O)CCC4=C3[C@@H](c3ccc(N(C)C)cc3)C[C@@]21C [mifepristone]	confirmed to decrease levels of ATXN3Q81.Luc fusion protein	did not alter ATXN3 levels	
Clc1ccccc1C(c1ccccc1)(c1ccccc1)n1ccnc1 [clotrimazole]	confirmed to decrease levels of ATXN3Q81.Luc fusion protein	did not alter ATXN3 levels	
Cc1c(C(=O)NN2CCCCC2)nn(-c2ccc(Cl)cc2Cl)c1-c1ccc(I)cc1 [AM251]	confirmed to decrease levels of ATXN3Q81.Luc fusion protein		
CC[C@@H](C(=O)[C@@H](C)[C@@H](O)[C@H](C)[C@@H]1O[C@@H]([C@@H](CC)C(=O)O)CC[C@@H]1C)[C@H]1O[C@]2(C=C[C@@H](O)[C@]3(CC[C@@](C)([C@H]4CC[C@](O)(CC)[C@H](C)O4)O3)O2)[C@H](C)C[C@@H]1C [salinomycin sodium]	confirmed to decrease levels of ATXN3Q81.Luc fusion protein	reduced levels	reduced levels
